From patent publication US20260317344A1, “EGFR INHIBITORS FOR TREATING DISEASE” (BLOSSOMHILL THERAPEUTICS, INC., priority 2023, published 2026)
pIC50: −log10 of the molar value.

Experiments:
Type in all cases: cell-based
[1] = molecular target: T1, pEGFR, PC-9 cells (d746-750 EGFR) (Homo sapiens, UniProt P00533, DEL746-750); assay: Cellular EGFR phosphorylation assay (LANCE Ultra TR-FRET) in PC-9 cells; conditions: 4 hours at 37° C., read-out: PC-9 pEGFR IC50
T1 construct: pEGFR (Tyr1068) TR-FRET
T1 sequence (P00533 with tags, fused parts or gaps DEL746-750): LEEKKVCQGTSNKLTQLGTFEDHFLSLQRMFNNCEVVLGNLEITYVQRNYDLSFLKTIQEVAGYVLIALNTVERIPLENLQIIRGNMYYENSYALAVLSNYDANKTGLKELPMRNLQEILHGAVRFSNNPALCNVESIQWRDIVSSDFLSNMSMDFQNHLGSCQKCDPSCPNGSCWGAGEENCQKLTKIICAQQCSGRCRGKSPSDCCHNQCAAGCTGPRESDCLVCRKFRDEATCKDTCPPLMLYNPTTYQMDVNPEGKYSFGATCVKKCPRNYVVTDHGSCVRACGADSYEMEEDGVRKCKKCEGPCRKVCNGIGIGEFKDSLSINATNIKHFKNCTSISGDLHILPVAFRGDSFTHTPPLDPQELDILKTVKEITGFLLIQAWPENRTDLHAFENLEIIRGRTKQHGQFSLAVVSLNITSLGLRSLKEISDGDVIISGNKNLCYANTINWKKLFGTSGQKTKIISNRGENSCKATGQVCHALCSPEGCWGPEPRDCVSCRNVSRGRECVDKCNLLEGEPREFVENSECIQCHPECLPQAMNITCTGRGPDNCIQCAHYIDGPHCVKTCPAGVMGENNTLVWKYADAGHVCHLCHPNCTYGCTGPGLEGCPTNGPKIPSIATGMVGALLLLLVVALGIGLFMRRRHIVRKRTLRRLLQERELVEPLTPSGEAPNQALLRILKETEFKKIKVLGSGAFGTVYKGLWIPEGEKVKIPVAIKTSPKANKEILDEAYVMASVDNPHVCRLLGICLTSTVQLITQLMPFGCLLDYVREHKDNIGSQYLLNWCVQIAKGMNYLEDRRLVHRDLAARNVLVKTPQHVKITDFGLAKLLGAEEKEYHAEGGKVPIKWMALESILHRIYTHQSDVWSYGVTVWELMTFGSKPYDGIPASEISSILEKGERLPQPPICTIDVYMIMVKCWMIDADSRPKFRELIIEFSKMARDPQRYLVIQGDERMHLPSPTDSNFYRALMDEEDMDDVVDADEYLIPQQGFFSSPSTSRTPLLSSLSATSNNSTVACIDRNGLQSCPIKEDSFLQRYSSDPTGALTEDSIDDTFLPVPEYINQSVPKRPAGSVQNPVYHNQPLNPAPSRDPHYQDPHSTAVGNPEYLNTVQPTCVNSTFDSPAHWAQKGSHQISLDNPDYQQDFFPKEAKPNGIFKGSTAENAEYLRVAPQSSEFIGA
How it was run: (§1)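 4 h compound treatment at 37 °C, 9-point 3-fold titration. EGF (40 ng/mL, final 10 min) in A431 only. Tyr1068 phosphorylation measured by TR-FRET and IC50 fitted.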

[2] = molecular target: T2, pEGFR, NCI-H1975 cells (L858R/T790M EGFR) (Homo sapiens, UniProt P00533, L858R/T790M); assay: Cellular EGFR phosphorylation assay (LANCE Ultra TR-FRET) in NCI-H1975 cells; conditions: 4 hours at 37° C., read-out: H1975 pEGFR IC50
T2 construct: pEGFR (Tyr1068) TR-FRET
T2 sequence (P00533 25-1210 T790M/L858R): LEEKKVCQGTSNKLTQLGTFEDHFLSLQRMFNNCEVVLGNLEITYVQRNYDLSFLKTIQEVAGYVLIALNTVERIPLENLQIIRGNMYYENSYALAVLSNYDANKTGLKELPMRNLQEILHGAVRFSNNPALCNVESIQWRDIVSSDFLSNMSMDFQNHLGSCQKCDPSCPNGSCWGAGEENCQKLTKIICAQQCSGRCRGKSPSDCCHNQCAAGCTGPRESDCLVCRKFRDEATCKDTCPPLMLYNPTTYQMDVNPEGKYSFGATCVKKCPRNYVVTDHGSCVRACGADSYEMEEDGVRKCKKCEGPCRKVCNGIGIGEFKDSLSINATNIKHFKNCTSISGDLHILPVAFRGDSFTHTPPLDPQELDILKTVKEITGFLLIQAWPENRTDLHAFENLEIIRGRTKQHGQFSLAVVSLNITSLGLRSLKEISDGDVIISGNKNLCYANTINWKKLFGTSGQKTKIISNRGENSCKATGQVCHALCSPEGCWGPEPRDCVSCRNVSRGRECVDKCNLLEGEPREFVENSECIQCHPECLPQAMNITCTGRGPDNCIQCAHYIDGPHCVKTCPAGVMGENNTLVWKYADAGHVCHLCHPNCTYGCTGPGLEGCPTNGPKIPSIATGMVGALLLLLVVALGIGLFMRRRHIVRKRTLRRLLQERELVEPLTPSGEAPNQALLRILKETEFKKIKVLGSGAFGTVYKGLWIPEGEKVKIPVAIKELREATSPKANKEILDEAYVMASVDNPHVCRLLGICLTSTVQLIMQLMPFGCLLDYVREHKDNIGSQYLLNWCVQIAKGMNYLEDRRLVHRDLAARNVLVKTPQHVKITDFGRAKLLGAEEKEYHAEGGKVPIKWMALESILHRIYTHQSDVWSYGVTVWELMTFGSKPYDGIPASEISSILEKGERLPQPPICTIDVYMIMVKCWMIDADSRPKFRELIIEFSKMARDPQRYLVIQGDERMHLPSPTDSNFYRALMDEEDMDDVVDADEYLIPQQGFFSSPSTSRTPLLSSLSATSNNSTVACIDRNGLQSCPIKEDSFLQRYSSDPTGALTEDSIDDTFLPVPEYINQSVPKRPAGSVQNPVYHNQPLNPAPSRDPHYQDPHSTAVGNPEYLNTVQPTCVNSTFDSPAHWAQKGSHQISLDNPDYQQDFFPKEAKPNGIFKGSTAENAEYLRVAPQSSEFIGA
How it was run: as §1

[3] = molecular target: T3, pEGFR, A431 cells (wildtype EGFR) (Homo sapiens, UniProt P00533); assay: Cellular EGFR phosphorylation assay (LANCE Ultra TR-FRET) in A431 cells; conditions: 4 hours at 37° C., 40 ng/mL EGF for the final 10 minutes, read-out: A431 pEGFR IC50
T3 construct: pEGFR (Tyr1068) TR-FRET
T3 sequence (P00533 25-1210): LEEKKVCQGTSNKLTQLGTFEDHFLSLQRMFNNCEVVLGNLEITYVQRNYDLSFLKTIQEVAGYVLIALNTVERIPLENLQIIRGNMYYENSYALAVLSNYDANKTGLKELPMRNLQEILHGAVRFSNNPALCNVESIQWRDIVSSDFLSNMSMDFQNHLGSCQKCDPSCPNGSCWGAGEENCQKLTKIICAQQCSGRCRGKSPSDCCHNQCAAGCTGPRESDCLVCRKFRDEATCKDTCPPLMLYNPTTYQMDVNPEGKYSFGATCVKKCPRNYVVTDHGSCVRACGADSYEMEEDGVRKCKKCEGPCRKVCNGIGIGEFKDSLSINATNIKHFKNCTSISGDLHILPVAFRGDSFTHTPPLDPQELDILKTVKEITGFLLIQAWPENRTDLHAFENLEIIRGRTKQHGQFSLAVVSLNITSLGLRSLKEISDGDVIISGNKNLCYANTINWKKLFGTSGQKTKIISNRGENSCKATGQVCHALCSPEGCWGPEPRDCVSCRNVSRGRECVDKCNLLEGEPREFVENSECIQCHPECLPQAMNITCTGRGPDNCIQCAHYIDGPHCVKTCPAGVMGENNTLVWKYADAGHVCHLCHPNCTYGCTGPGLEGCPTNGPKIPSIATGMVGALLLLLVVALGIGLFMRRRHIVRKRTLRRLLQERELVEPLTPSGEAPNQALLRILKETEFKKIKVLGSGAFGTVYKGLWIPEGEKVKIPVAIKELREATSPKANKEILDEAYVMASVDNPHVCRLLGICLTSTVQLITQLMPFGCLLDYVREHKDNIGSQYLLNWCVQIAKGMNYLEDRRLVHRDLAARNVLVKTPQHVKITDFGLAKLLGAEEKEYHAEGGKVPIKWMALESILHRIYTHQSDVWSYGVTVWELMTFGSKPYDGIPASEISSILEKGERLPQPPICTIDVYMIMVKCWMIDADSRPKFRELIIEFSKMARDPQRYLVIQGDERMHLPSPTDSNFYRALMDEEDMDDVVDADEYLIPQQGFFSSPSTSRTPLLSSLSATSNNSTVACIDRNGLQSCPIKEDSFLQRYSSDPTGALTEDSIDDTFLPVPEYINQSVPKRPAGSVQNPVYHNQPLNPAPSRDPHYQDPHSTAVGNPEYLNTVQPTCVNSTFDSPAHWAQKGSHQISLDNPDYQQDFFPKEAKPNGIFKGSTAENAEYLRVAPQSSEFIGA
How it was run: as §1

[4] = tested on: PC-9 cells; assay: 5-Day CellTiter Glo (CTG) cell proliferation assay, PC-9; conditions: Homo sapiens; PC-9 cells (d746-750 EGFR), 5-day CTG proliferation, 120 hours; read-out: PC-9 IC50
How it was run: (§2)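 Luminescent ATP signal (CellTiter-Glo 2.0) after 120 hours of compound exposure gave IC50 values. PC-9 and HCC827 harbour EGFR d746-750; NCI-H1975 harbours L858R/T790M.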

[5] = tested on: NCI-H1975 cells; assay: 5-Day CellTiter Glo (CTG) cell proliferation assay, NCI-H1975; conditions: Homo sapiens; NCI-H1975 cells (L858R/T790M EGFR), 5-day CTG proliferation, 120 hours; read-out: H1975 IC50
How it was run: as §2

[6] = tested on: HCC827 cells; assay: 5-Day CellTiter Glo (CTG) cell proliferation assay, HCC827; conditions: Homo sapiens; HCC827 cells (d746-750 EGFR), 5-day CTG proliferation, 120 hours; read-out: HCC827 IC50
How it was run: as §2

[7] = tested on: BaF3 cells with engineered EGFR L858R/T790M/C797S; assay: 3-Day CellTiter Glo (CTG) cell proliferation assay, BaF3 EGFR L858R/T790M/C797S; conditions: Mus musculus, 3-day CTG proliferation, 72 hours
Method: (§3) 3-DAY CellTiter Glo (CTG) Cell Proliferation Assays (BaF3 Cell Lines)
(§4) Cell proliferation assays were carried out in BaF3 cells engineered with EGFR mutations. BaF3 cells with engineered EGFR L858R/T790M/C797S, EGFR L858R/C797S, or EGFR d746-750/T790M transgene, one thousand cells/50 μL per well were seeded in white 384-well plate, followed by treatment with indicated compounds in a 9-dose dilution series using TECAN d300e liquid dispenser. Cells were incubated with compounds for 72 hours at 37° C. and 5% CO2. Cell proliferation was measured using CellTiter-Gbo 2.0 luciferase-based ATP detection assay (Promega, Madison, WI) at 18 μL per well following the manufacturer's protocol. Plates were then read on a TECAN Sparks multimode microplate reader. Data was analyzed using GraphPad Prism 9 (GraphiPad Software, San Diego, CA) to obtain IC50 values.

[8] = tested on: BaF3 cells with engineered EGFR L858R/C797S; assay: 3-Day CellTiter Glo (CTG) cell proliferation assay, BaF3 EGFR L858R/C797S; conditions: Mus musculus, 3-day CTG proliferation, 72 hours
Method: as §3, §4

[9] = tested on: BaF3 cells with engineered EGFR d746-750/T790M; assay: 3-Day CellTiter Glo (CTG) cell proliferation assay, BaF3 EGFR d746-750/T790M; conditions: Mus musculus; BaF3 EGFR d746-750/T790M cells, 3-day CTG proliferation, 72 hours
Method: as §3, §4

Row | pIC50 [1] | pIC50 [2] | pIC50 [3] | pIC50 [4] | pIC50 [5] | pIC50 [6] | pIC50 [7] | pIC50 [8] | pIC50 [9] | SMILES
1 | 8.47 | 8.75 | 7.75 | 8.28 | 8.54 | 8.94 | 9.13 | 9.89 | 8.67 | CCOc1nn([C@H](C)CO)c2c1/C=C/c1n[nH]c3c(C)nc(cc13)-c1c(C)nn(C)c1O[C@@H](C)CN(C)C2 [Ex. 95, (2R)-2-[(10S,17E)-16-ethoxy-6,8,10,12,20-pentamethyl-2,8,10,11,12,13-hexahydro-14H-5,3-(azenometheno)tripyrazolo[3,4-f:3′,4′-j:4″,3″-n][1,4]oxazacyclopentadecin-14-yl]propan-1-ol]
2 | 9.09 | 8.89 | 7.90 | 8.99 | 9.03 | 9.41 | 9.23 | 10.22 | 9.17 | CCOc1nn(CCO)c2c1/C=C/c1n[nH]c3c(C)nc(cc13)-c1c(C)nn(C)c1O[C@H](C)[C@H]1CCCN1C2 [Ex. 178]
3 | 8.44 | 8.72 | 7.77 | 8.24 | 8.48 | 8.87 | 9.13 | 9.62 | 9.00 | CCOc1nn([C@@H](C)CO)c2c1/C=C/c1n[nH]c3c(C)nc(cc13)-c1c(C)nn(C)c1O[C@H](C)CN(C)C2 [Ex. 98]
4 | 7.16 | 7.67 | 7.46 | 7.20 | 7.24 | 7.77 | 7.76 | 8.03 | 7.34 | CCOc1nn([C@@H](C)CO)c2c1/C=C/c1n[nH]c3c(C)nc(cc13)-c1c(C)nn(C)c1O[C@@H](C)CNC2 [Ex. 91, (2S)-2-[(10S,17E)-16-ethoxy-6,8,10,20-tetramethyl-2,8,10,11,12,13-hexahydro-14H-5,3-(azenometheno)tripyrazolo[3,4-f:3′,4′-j:4″,3″-n][1,4]oxazacyclopentadecin-14-yl]propan-1-ol]
5 | 8.63 | 7.83 | 7.61 | 8.81 | 6.68 | 9.07 | 8.36 | 9.92 | 7.18 | CCOc1nn([C@@H](C)CO)c2c1/C=C/c1n[nH]c3cnc(cc13)-c1c(CC)nn(C)c1O[C@@H](C)CN(C)C2 [Ex. 82, (2S)-2-[(10S,17E)-16-ethoxy-6-ethyl-8,10,12-trimethyl-2,8,10,11,12,13-hexahydro-14H-5,3-(azenometheno)tripyrazolo[3,4-f:3′,4′-j:4″,3″-n][1,4]oxazacyclopentadecin-14-yl]propan-1-ol]
6 | 8.36 | 8.15 | 8.29 | 7.97 | 7.26 | 8.67 | 8.45 | 9.31 | 8.40 | CCOc1nn(C[C@H](C)O)c2c1/C=C/c1n[nH]c3cnc(cc13)-c1c(C)nn(C)c1O[C@@H](C)CN(C1CC1)C2 [Ex. 107, (2S)-1-[(10S,17E)-12-cyclopropyl-16-ethoxy-6,8,10-trimethyl-2,8,10,11,12,13-hexahydro-14H-5,3-(azenometheno)tripyrazolo[3,4-f:3′,4′-j:4″,3″-n][1,4]oxazacyclopentadecin-14-yl]propan-2-ol]
7 | 7.79 | 7.32 | 7.47 | 7.45 | 6.90 | 7.96 | 7.68 | 8.42 | 7.36 | CCOc1nn([C@H](C)CO)c2c1/C=C/c1n[nH]c3cnc(cc13)-c1c(C)nn(C)c1O[C@H](C)CN(C)C2 [Ex. 89, (2R)-2-[(10R,17E)-16-ethoxy-6,8,10,12-tetramethyl-2,8,10,11,12,13-hexahydro-14H-5,3-(azenometheno)tripyrazolo[3,4-f:3′,4′-j:4″,3″-n][1,4]oxazacyclopentadecin-14-yl]propan-1-ol]
8 | – | – | – | – | – | – | 7.01 | 7.53 | 6.40 | CCOc1nn([C@@H](C)CO)c2c1/C=C/c1n[nH]c3cnc(cc13)-c1c(C)nn(C)c1O[C@@H](C)CN(C(C)=O)C2 [Ex. 112, 1-[(10S,17E)-16-ethoxy-14-[(2S)-1-hydroxypropan-2-yl]-6,8,10-trimethyl-2,8,10,11,13,14-hexahydro-12H-5,3-(azenometheno)tripyrazolo[3,4-f:3′,4′-j:4″,3″-n][1,4]oxazacyclopentadecin-12-yl]ethan-1-one]
9 | 8.01 | 8.46 | 7.87 | 8.00 | 7.95 | 8.67 | 8.73 | 9.25 | 7.87 | Cc1nn(C)c2c1/C=C/c1n[nH]c3c(C)nc(cc13)-c1c(C)nn(C)c1O[C@@H](C)CN(C)C2 [Ex. 103, (10S,17E)-6,8,10,12,14,16,20-heptamethyl-2,10,11,12,13,14-hexahydro-8H-5,3-(azenometheno)tripyrazolo[3,4-f:3′,4′-j:4″,3″-n][1,4]oxazacyclopentadecine]
10 | – | – | – | 7.28 | 7.24 | 7.60 | 7.91 | 8.50 | 6.69 | CCN(C)c1nn([C@@H](C)CO)c2c1/C=C/c1n[nH]c3c(C)nc(cc13)-c1c(C)nn(C)c1O[C@@H](C)CN(C)C2 [Ex. 102, (2S)-2-[(10S,17E)-16-[ethyl(methyl)amino]-6,8,10,12,20-pentamethyl-2,8,10,11,12,13-hexahydro-14H-5,3-(azenometheno)tripyrazolo[3,4-f:3′,4′-j:4″,3″-n][1,4]oxazacyclopentadecin-14-yl]propan-1-ol]
11 | – | – | – | 8.47 | 8.21 | 8.83 | 7.50 | 8.04 | 8.52 | C=CC(=O)N1Cc2c(c(OCC)nn2[C@@H](C)CO)/C=C/c2n[nH]c3cnc(cc23)-c2c(C)nn(C)c2O[C@@H](C)C1 [Ex. 115, 1-[(10S,17E)-16-ethoxy-14-[(2S)-1-hydroxypropan-2-yl]-6,8,10-trimethyl-2,8,10,11,13,14-hexahydro-12H-5,3-(azenometheno)tripyrazolo[3,4-f:3′,4′-j:4″,3″-n][1,4]oxazacyclopentadecin-12-yl]prop-2-en-1-one]
12 | 7.40 | 7.30 | 6.84 | 7.23 | – | 7.86 | 7.44 | 8.16 | 7.19 | CCOc1nn(CCO)c2c1/C=C/c1n[nH]c3cnc(cc13)-c1c(cnn1C)OCCN(C)C2 [Ex. 104, 2-[(17E)-16-ethoxy-6,12-dimethyl-2,6,10,11,12,13-hexahydro-14H-5,3-(azenometheno)tripyrazolo[3,4-f:3′,4′-j:3″,4″-n][1,4]oxazacyclopentadecin-14-yl]ethan-1-ol]
13 | 6.50 | 6.56 | 6.44 | 6.68 | – | 7.28 | 6.83 | 7.81 | 6.16 | CCN(C)c1nn([C@@H](C)CO)c2c1/C=C/c1n[nH]c3cnc(cc13)-c1c(C)nn(C)c1O[C@@H](C)CN(C)C2 [Ex. 105, (2S)-2-[(10S,17E)-16-[ethyl(methyl)amino]-6,8,10,12-tetramethyl-2,8,10,11,12,13-hexahydro-14H-5,3-(azenometheno)tripyrazolo[3,4-f:3′,4′-j:4″,3″-n][1,4]oxazacyclopentadecin-14-yl]propan-1-ol]
